Test results as given in US20260070886A1, “QUINOLINE PIPERAZINE DERIVATIVES, PHARMACEUTICAL COMPOSITION AND USES THEREOF” (priority 2022, published 2026).

How the values were obtained:
[1] = test system: Non-small cell lung cancer cell lines; test: Cell Titer Glo assay, overall statement; format: cell-based, human; details: summary in words
Excerpt: (§1) The following human derived non-small cell lung cancer cell lines were used to test the efficiency of the compounds to cause cell death and assess the anti-cancer properties of said compounds: 1. A549 cells: adenocarcinomic human alveolar basal epithelial cells; these cells are used as models for the study of lung cancer and the development of drug therapies against it • 2. NCI-H-460 cells are also human lung cancer cells, and • 3. NCI-H-522 cells are also human lung cancer cells.
(§2) Cells were cultured and maintained in F12K+10% FBS+1× anti-anti media and RPMI+10% FBS+1× anti-anti media. Cells were trypsinised and expanded to ensure that cells are not over-confluent and are in log growth phase. On day 0, 500 cells/well were seeded in 30 μl media using cell culture treated white flat bottom 384 well plate, centrifuged at 40×g for 10 seconds and incubated overnight in […], 5% CO2 incubator. On day 1, 4× concentration of compounds were prepared in complete media, 10 μl was added to cells, centrifuged at 40×g for 10 seconds and incubated 72 hours in 37° C., 5% CO2 incubator. Compounds tested: 100 μM top, 3 fold dilution and 10 point DRC in triplicate. Final DMSO concentration was maintained at 0.5% for all compound. No compound/DMSO was used as a control. On day 4 (72 hours post treatment) plates were brought to room temperature for 10 min 10 μl of CellTiter Glo reagent was added to each well and placed the plates on an orbital shaker for 10 minutes at room temperature. Luminescence signal was read on the Envision plate reader using the ultra-sensitive luminescence protocol. Data was plotted and analyzed using the below formula: DMSO control treated cells RLU considered as 100% cell viability.
(§3) Table 7 provides the IC50 values for cell toxicity of most efficient derivatives of Formula A.

NCI-H-522 = test: CellTiter Glo assay, NCI-H-522; format: cell-based; details: Homo sapiens, NCI-H522; 72 hours, 10 point DRC, 100 μM top; read-out: Cytotoxicity IC50 NCI-H-522
Excerpt: as §1, §2, §3

NCI-H-460 cells = test: Cell cytotoxicity assay, NCI-H-460 cells; format: cell-based; details: Homo sapiens, NCI-H460, 72 hours, percent cytotoxicity against DMSO control; for cytotoxicity at 1 µM: 1 μM compound, read-out: Cell toxicity NCI-H-460 cells 1 μM; for cytotoxicity at 10 µM: 10 μM compound, read-out: Cell toxicity NCI-H-460 cells 10 μM
Excerpt: as §1
(§4) 500 cells/well/30 μL were seeded in a 384 well cell culture plate. Incubated over night at 37° C., 5% CO2 in cell culture incubator. 10 μL of 4× compound was added to the plates, and incubated for 72 hours at 37° C., 5% CO2 in cell culture incubator. Assay DMSO control were included for 0% cytotoxicity control. Assay was terminated by addition of 10 μL of the reagent CTG 2.0 detection reagent #G9242. Plates were incubated for 20 minute incubation at room temperature with shaking Plate were read in Envision. Ultrasensitive luminescence and data was analyzed and percent cytotoxicity of compounds was determined against DMSO control.
(§5) All the compounds, A1-A116, were tested for cell toxicity using said non-small cell lung cancer cell lines using the above described method.

A549 cells = test: Cell cytotoxicity assay, A549 cells; format: cell-based; details: Homo sapiens, 72 hours, percent cytotoxicity against DMSO control; for cytotoxicity at 1 µM: 1 μM compound, read-out: Cell toxicity A549 cells 1 μM; for cytotoxicity at 10 µM: 10 μM compound, read-out: Cell toxicity A549 cells 10 μM
Excerpt: as §1, §4, §5

NCI-H-460 = test: CellTiter Glo assay, NCI-H-460; format: cell-based; details: Homo sapiens, NCI-H460; 72 hours, 10 point DRC, 100 μM top; read-out: Cytotoxicity IC50 NCI-H-460
Excerpt: as §1, §2, §3

[2] = test system: Non-small cell lung cancer cell lines; test: Cell toxicity assay, overall statement; format: cell-based; details: summary in words of Table 6
Excerpt: as §1, §4, §5
These selected derivatives of Formula A were further tested to confirm their efficiency as anti-cancer compounds.

NCI-H-522 cells = test: Cell cytotoxicity assay, NCI-H-522 cells; format: cell-based; details: Homo sapiens, NCI-H522, 72 hours, percent cytotoxicity against DMSO control; for cytotoxicity at 1 µM: 1 μM compound, read-out: Cell toxicity NCI-H-522 cells 1 μM; for cytotoxicity at 10 µM: 10 μM compound, read-out: Cell toxicity NCI-H-522 cells 10 μM
Excerpt: as §1, §4, §5

A549 = test: CellTiter Glo assay, A549; format: cell-based; details: Homo sapiens, 72 hours, 10 point DRC, 100 μM top, read-out: Cytotoxicity IC50 A549
Excerpt: as §1, §2, §3

Row | SMILES | efficiency in cell toxicity against Non-small cell lung cancer cell lines [1] | IC50 (NCI-H-522) | cytotoxicity at 1 µM (NCI-H-460 cells) | cytotoxicity at 10 µM (NCI-H-460 cells) | cytotoxicity at 1 µM (A549 cells) | cytotoxicity at 10 µM (A549 cells) | IC50 (NCI-H-460) | activity against Non-small cell lung cancer (cell toxicity) [2] | cytotoxicity at 1 µM (NCI-H-522 cells) | cytotoxicity at 10 µM (NCI-H-522 cells) | IC50 (A549)
1 | COc1cc(Nc2nc(C)cc(N3CCN(c4ccnc5cc(F)ccc45)CC3)n2)cc(OC)c1 [Compound A48, N-(3,5-dimethoxyphenyl)-4-(4-(7-fluoroquinolin-4-yl)piperazin-1-yl)-6-methylpyrimidin-2-amine] | best efficiency | 3240 nM | 0% | 66% | 57% | 98% | 1840 nM | active | 16% | 71% | 818 nM
2 | COc1cc(Nc2nc(N3CCN(c4ccnc5cc(F)ccc45)CC3)cc(C(F)(F)F)n2)cc(OC)c1 [Compound A49, N-(3,5-dimethoxyphenyl)-4-(4-(7-fluoroquinolin-4-yl)piperazin-1-yl)-6-(trifluoromethyl)pyrimidin-2-amine] | best efficiency | 1840 nM | 3% | 59% | 64% | 99% | 842 nM | active | 45% | 77% | 576 nM
